Source: publication PMC4627311, “Marine alkaloid Monanchocidin a overcomes drug resistance by induction of autophagy and lysosomal membrane permeabilization” (Oncotarget, 2015)
Like-named read-outs stand apart in the source and are kept apart here.

How the values were obtained:
NCCIT-R cells [1] = assay: Drug combination MTT assay, Chou-Talalay method (CI)
Experimental: (§6) F, Effect of MonA in combination with cisplatin on NCCIT-R cells, examined by the MTT assay. Cells were co-treated with different concentrations of the single substances or their combination for 48 h at a constant molar ratio. The combinational index (CI) values were calculated with CompuSyn software. The ratio of the substances is C(MonA) : C(cisplatin) = 1.2 : 10.
(§7) Co-treatment of MonA and the indicated inhibitors for 48 h was performed. The combinational index (CI) values were calculated with the CompuSyn software for the Fa (fraction affected) = 0.5.
(§8) Determination of synergistic or antagonistic drug effects in combination assays was performed using the Chou-Talalay method [20]. Data were generated by MTT assay. The combinational index (CI) was calculated for the constant drugs ratio with the CompuSyn v.1.0. software (ComboSyn, Inc., Paramus, NJ, USA). Synergism is defined as a CI < 1, whereas antagonism is defined by a CI > 1. The MTT assay was used to examine the combination of MonA at the IC50 with defined inhibitors of autophagy or LMP, or with the IC50 of cisplatin. […] All experiments were performed in triplicates and were repeated at least three times.
MonA : z-VAD-fmk 1.2 µM : 100 µM
MonA : calpeptine 1.2 µM : 50 µM
MonA : leupeptine 1.2 µM : 100 µM
(§9) MonA : protease inhibitors cocktail 1.2 µM : 0.02 tablet/ml
(cOmplete Mini EDTA-free)

NCCIT = assay: MTT cytotoxicity assay, NCCIT; assay type: cell-based, human; conditions: cisplatin-sensitive GCT, 72 h
From the text: (§1) The human prostate cancer cell lines PC3 (docetaxel resistant, androgen-independent), DU145 (docetaxel sensitive, androgen-independent), LNCaP (docetaxel sensitive, androgen-dependent), human bladder cancer cell lines RT112, RT4, 486p, T24, human embryonic kidney cell line HEK 293T, human embilical vascular endothelium cell line HUVEC, as well as human fibroblast cell lines MRC-5 and MRC-9 were obtained from ATCC (Manassas, VA, USA). The human germ cell tumor cancer cell line NCCIT was obtained from DSMZ (Braunschweig, Germany). TCam-2 and 2102EP cells were kindly provided by Prof. L. Looijenga (Rotterdam, The Netherlands). The cisplatin-resistant sublines NCCIT-R and 2102EP-R have been generated as reported before. Cells were cultured according to the manufacturers instructions (culture conditions are described in the supplementary). Cells were continuously kept in culture for a maximum of 3 months, and were routinely inspected microscopically for stable phenotype and regularly checked for contamination with mycoplasma. Cell line authentication was performed by DSMZ (Braunschweig, Germany) using highly polymorphic short tandem repeat loci.
(§2) The in vitro cytotoxicity of individual substances and drug combinations was evaluated using the MTT (3-(4,5-dimethylthiazol-2-yl)-2,5-diphenyltetrazolium bromide) assay, which was performed as previously described.

2102EP = assay: MTT cytotoxicity assay, 2102EP; assay type: cell-based, human; conditions: cisplatin-sensitive GCT, 72 h
From the text: as §1, §2

TCam-2 = assay: MTT cytotoxicity assay, TCam-2; assay type: cell-based, human; conditions: TCam-2, cisplatin-sensitive GCT, 72 h
From the text: as §1, §2

NCCIT-R = assay: MTT cytotoxicity assay, NCCIT-R; assay type: cell-based, human
From the text: as §1, §2

2102EP-R = assay: MTT cytotoxicity assay, 2102EP-R; assay type: cell-based, human; conditions: cisplatin-resistant GCT, 72 h
From the text: as §1, §2

RT112 = assay: MTT cytotoxicity assay, RT112; assay type: cell-based, human; conditions: 72 h
From the text: as §1, §2

RT4 = assay: MTT cytotoxicity assay, RT4; assay type: cell-based, human; conditions: 72 h
From the text: as §1, §2

486p = assay: MTT cytotoxicity assay, 486p; assay type: cell-based, human; conditions: bladder cancer, 72 h
From the text: as §1, §2

T24 = assay: MTT cytotoxicity assay, T24; assay type: cell-based, human; conditions: 72 h
From the text: as §1, §2

NCCIT-R cells [2] = assay: Western blotting / PAGE of protein extracts; assay type: cell-based, human; conditions: for Expression of LC3B-II (marker of autophagy): MonA 0.25 – 2 μM long-term or 20 – 50 μM short-term, reference drugs 48 h
Experimental: (§3) Figure 3 Effect of MonA on activation of MAPK and protein degradation A, NCCIT-R cells were analyzed after treatment with MonA for 1 h by Western blotting. Cells treated with 50 μM of anisomycin for 1 h (Aniso) were used as a positive control for MAPK activation. […] C, Analysis of NCCIT-R cells treated with 1 μM of MonA for 1 h. […] Two samples of the spot were randomly picked from the area between ~5 kDa and ~1 kDa, followed by trypsination and identification of peptides by tandem mass spectrometry. D, Analysis of NCCIT-R cells treated with 20 μM of MonA for 1-3 h. Cleavage of PARP and caspase-3 were investigated as hallmarks of apoptosis. Cells treated with 10 μM of cisplatin (CP) for 48 h were used for comparison of the effects of a classical cytotoxic agent. E, Analysis of non-malignant HEK 293T cells treated with 0.0625 – 1 μM of MonA for 48 h.
Figure 5 Effect of cytotoxic compounds on NCCIT-R cells A, NCCIT-R cells were treated with docetaxel, anisomycin, or cisplatin for 48 h. The effect on markers of apoptosis (cleavage of PARP and caspase-3) and autophagy (LC3B-II) were analyzed using Western blotting. While all show induction of apoptosis, expression of LC3B-II is not increased after treatment with these substances. B, Microphotographs of NCCIT-R cells treated with cisplatin or MonA for 48 h show morphological changes induced by the substances. The pictures were made at x100 magnification. Each bar represents 50 μm.
(§4) Preparation of protein extracts and Western blotting were performed as described previously with slight modifications. In brief, 1 × 10^6 cells/well were seeded in Petri dishes (ø 6 cm, 5 mL/dish). Cells were harvested, proteins were extracted, subjected to electrophoresis in 10-15% SDS-polyacrylamide gels at 120 V, and transferred from gel to a 0.2 μm pore PVDF membrane. The membrane was blocked and incubated with the primary antibody according to the manufacturer's protocol (for antibodies used, see the supplementary). After washing, the membranes were incubated with the corresponding secondary antibody for 1 h at RT. Signals were detected using the ECL chemiluminescence system (Thermo Scientific, Rockford, IL, USA) according to the manufacturer's protocol.
SDS-polyacrylamide gels were prepared as described above. Dye-free loading buffer was used for the protein samples preparation. Gels were fixed and stained with colloidal Coomassie Blue overnight, destained, and digitalized as previously described.

MRC-5 = assay: MTT cytotoxicity assay, MRC-5; assay type: cell-based; conditions: Homo sapiens, MRC5, MRC-5, non-malignant, 72 h
From the text: as §1, §2

MRC-9 = assay: MTT cytotoxicity assay, MRC-9; assay type: cell-based; conditions: Homo sapiens, MRC9, MRC-9, non-malignant, 72 h
From the text: as §1, §2

HEK 293T = assay: MTT cytotoxicity assay, HEK 293T; assay type: cell-based; conditions: Homo sapiens, non-malignant, 72 h
From the text: as §1, §2

HUVEC = assay: MTT cytotoxicity assay, HUVEC; assay type: cell-based; conditions: Homo sapiens, non-malignant, 72 h
From the text: as §1, §2

PC3 = assay: MTT cytotoxicity assay, PC3; assay type: cell-based; conditions: Homo sapiens, PC-3, PC3, prostate cancer, 72 h
From the text: as §1, §2

DU145 = assay: MTT cytotoxicity assay, DU145; assay type: cell-based; conditions: Homo sapiens, DU-145, DU145, prostate cancer, 72 h
From the text: as §1, §2

LNCaP = assay: MTT cytotoxicity assay, LNCaP; assay type: cell-based; conditions: Homo sapiens, prostate cancer, 72 h
From the text: as §1, §2

HEK 293T cells = assay: Western blotting / PAGE, protein degradation in non-malignant cells; assay type: cell-based, human; conditions: non-malignant HEK 293T, 0.0625 – 1 μM, 48 h
Experimental: as §3
Preparation of protein extracts and Western blotting were performed as described previously with slight modifications. In brief, 1 × 10^6 cells/well were seeded in Petri dishes (ø 6 cm, 5 mL/dish). Cells were harvested, proteins were extracted, subjected to electrophoresis in 10-15% SDS-polyacrylamide gels at 120 V, and transferred from gel to a 0.2 μm pore PVDF membrane. […] Signals were detected using the ECL chemiluminescence system (Thermo Scientific, Rockford, IL, USA) according to the manufacturer's protocol. […]

prostate cancer cells = assay: Western blotting of LC3B-II in prostate cancer cells; assay type: cell-based, human; conditions: 48 h
Experimental: as §4

NCCIT-R cells [3] = assay: Acridine orange staining of lysosomes (LMP); assay type: cell-based, human
Experimental: (§5) Intact lysosomes were observed as organelles emitting red fluorescence (indicated by arrows). Red fluorescence was quantified using Image J software and is graphically depicted by column bars. B, Cells were treated with MonA for 48 h, and immobilized on glass plates. Samples were permeabilized, blocked, labeled with a primary anti-cathepsin B antibody, followed by a secondary Alexa Fluor 488-conjugated antibody labeling, and analyzed using fluorescent microscopy. […] The microphotographs (A, B) were made at x400 and x100 magnifications. Each bar represents 50 μm.
NCCIT-R cells were pre-incubated overnight in 8-chamber glass slides (5 × 10^4 cells/chamber). The medium was changed with medium containing different concentrations of the substances examined, and cells were treated for 60 min. Then cells were washed twice with PBS solution, stained with 0.5 μg/mL of acridine orange/PBS for 15 min at 37°C, covered with DAPI-based ProLong® Gold reagent (Life Technologies, Eugene, OR, USA), and immediately analyzed with AxioScope.A1 (Carl Zeiss) microscope and with the AxioVision40 V4.8 software (Carl Zeiss Imaging Solutions, Göttingen, Germany). Red fluorescence measurements and quantification were performed with Image J software (NIH, Bethesda, USA).

NCCIT-R cells [4] = assay: Detection of cathepsin B release; assay type: cell-based, human; conditions: 48 h
Experimental: as §5
To assess release of cathepsin B into the extracellular space, NCCIT-R cells were pre-incubated overnight in 6-well plates (2 × 10^5 cells/well), and were then treated with MonA for 48 h. After trypsination, cells were immobilized on glass slides using the cytospin method and dried overnight. Cells were fixed with 2% (w/v) PFA/PBS, washed with PBS and permeabilized with 0.1% (v/v) Triton X-100 solution in 2% (v/v) normal goat serum/PBS for 30 min. […] Then, samples were washed with PBS, covered with DAPI-based ProLong® Gold reagent (Life Technologies) and directly analyzed with AxioScope.A1 (Carl Zeiss) microscope and with the AxioVision40 V4.8 software (Carl Zeiss Imaging Solutions).

THP-1 = tested on: THP-1; set-up: method as in PMID 20804151; conditions: cited from earlier work
HL-60 = tested on: HL-60; set-up: method as in PMID 20804151; conditions: cited from earlier work
HeLa = tested on: HeLa; set-up: method as in PMID 20804151; conditions: cited from earlier work
NCCIT-R cells [5] = tested on: NCCIT-R cells
Experimental: as §6, §7, §8
MonA : z-VAD-fmk 1.2 µM : 100 µM
MonA : calpeptine 1.2 µM : 50 µM
MonA : leupeptine 1.2 µM : 100 µM
as §9
(cOmplete Mini EDTA-free)

## Cn1cnc(N)c2ncnc1-2 [3-MA, 3-methyladenine, reference compound]
NCCIT-R cells [1]; 48 h, MTT, CI at Fa = 0.5, ratios in Table S3
  Effect of inhibitor on cytotoxicity of MonA (combinational index): most pronounced antagonistic effect

## N.N.[Cl][Pt][Cl] [Cisplatin, cis-diamminedichloroplatinum (II), reference compound]
NCCIT
  IC50: 1.56 µM
2102EP
  IC50: 0.644 µM
TCam-2
  IC50: 2.48 µM
NCCIT-R; cisplatin-resistant GCT, 72 h, MTT
  IC50: 8.93 µM
2102EP-R
  IC50: 4.93 µM
RT112; RT112, bladder cancer
  IC50: 8.99 µM
RT4; RT4, bladder cancer
  IC50: 11.9 µM
486p
  IC50: 20.8 µM
T24; T24, bladder cancer
  IC50: 9.07 µM
NCCIT-R cells [2]; Western blotting
  Markers of apoptosis (cleavage of PARP and caspase-3): increase of markers of apoptosis
  Expression of LC3B-II (marker of autophagy): None of the drugs revealed an up-regulation of LC3B-II

## CC/C=C/[C@@H]1CC[C@]2(C[C@H]3CC[C@H]4[C@@H](C(=O)OC(CC)CCCCCCCCCCCCC[C@@H]5O[C@](O)(CCN)[C@H](O)N(CCCN)C5=O)[C@@]5(CCC[C@H](C)O5)NC(=[N+]34)N2)O1 (stereo partly drawn) [MonA, Monanchocidin A]
MRC-5
  IC50: 0.756 µM
MRC-9
  IC50: 0.708 µM
HEK 293T
  IC50: 0.67 µM
HUVEC
  IC50: 0.838 µM
NCCIT; Homo sapiens
  IC50: 0.21 µM
2102EP; Homo sapiens
  IC50: 0.341 µM
TCam-2; Homo sapiens
  IC50: 0.44 µM
NCCIT-R; Homo sapiens, 48 h of treatment
  IC50: 0.5 to 1 µM
NCCIT-R; Homo sapiens, cisplatin-resistant GCT, 72 h, MTT
  IC50: 0.253 µM
2102EP-R; Homo sapiens
  IC50: 0.306 µM
PC3
  IC50: 0.42 µM
DU145
  IC50: 0.482 µM
LNCaP
  IC50: 0.265 µM
RT112; Homo sapiens, RT-112, RT112, bladder cancer
  IC50: 0.263 µM
RT4; Homo sapiens, RT-4, RT4, bladder cancer
  IC50: 0.58 µM
486p; Homo sapiens
  IC50: 0.273 µM
T24; Homo sapiens, T-24, T24, bladder cancer
  IC50: 0.413 µM
NCCIT-R cells [2]; 50 μM, 1 h, Western blotting
  Activation of MAPK (p38, ERK, JNK): Activation of p38 and ERK, but not JNK
NCCIT-R cells [2]; Western blotting
  Expression of LC3B-II (marker of autophagy): up-regulation of LC3B-II
NCCIT-R cells [2]; short term 30 μM - 50 μM or long-term 0.5 μM - 2 μM
  Protein degradation: Degradation of different proteins was observed
HEK 293T cells
  Protein degradation: did not reveal any signs of protein degradation
Prostate cancer cells
  Expression of LC3B-II (marker of autophagy): up-regulation of LC3B-II
NCCIT-R cells [3]
  Lysosomal membrane permeabilization (acridine orange fluorescence): disappearance of red fluorescence coupled with increased green fluorescence
NCCIT-R cells [4]
  Concentration at which release of cathepsin B into the extracellular space occurred: ≥ 2 µM
THP-1
  Cytotoxic activity: micro- and nanomolar concentrations
HL-60
  Cytotoxic activity: micro- and nanomolar concentrations
HeLa
  Cytotoxic activity: micro- and nanomolar concentrations
NCCIT-R cells [1]; 48 h co-treatment, C(MonA) : C(cisplatin) = 1.2 : 10
  Effect of MonA in combination with cisplatin (combinational index): strong synergistic effects

## COc1ccc(C[C@H]2NC[C@H](O)[C@H]2OC(C)=O)cc1 [anisomycin, Anisomycin]
NCCIT-R cells [2]; Western blotting
  Markers of apoptosis (cleavage of PARP and caspase-3): increase of markers of apoptosis
  Expression of LC3B-II (marker of autophagy): None of the drugs revealed an up-regulation of LC3B-II

## CC(=O)O[C@@]12CO[C@@H]1C[C@H](O)[C@@]1(C)C(=O)[C@H](O)C3=C(C)[C@@H](OC(=O)[C@H](O)[C@@H](NC(=O)OC(C)(C)C)c4ccccc4)C[C@@](O)([C@@H](OC(=O)c4ccccc4)[C@H]21)C3(C)C [docetaxel]
NCCIT-R cells [2]; Western blotting
  Markers of apoptosis (cleavage of PARP and caspase-3): increase of markers of apoptosis
  Expression of LC3B-II (marker of autophagy): None of the drugs revealed an up-regulation of LC3B-II

## z-VAD(OMe)-fmk [z-VAD-fmk]
NCCIT-R cells [5]
  Effect of inhibitor on cytotoxicity of MonA (combinational index): moderate antagonistic effect
